# Measured values: article PMC4171615, “Discovery of selective inhibitors of Glutaminase-2, which inhibit mTORC1, activate autophagy and inhibit proliferation in cancer cells” (Oncotarget, 2014)
# Experiments:
# human GAB = biological target: T1, human GAB (Homo sapiens, UniProt Q9UI32); experiment: Two-step glutaminase activity assay, purified recombinant GAB; type: biochemical; details: recombinant wild-type GAB, absence of phosphate
# T1 construct: Equivalent construct of GAB (Pro56-Val602) was amplified from the cDNA clone; His-tag (N); made in house; host or cells: Escherichia coli C41(DE3)pLysS
# T1 sequence (Q9UI32 56-602): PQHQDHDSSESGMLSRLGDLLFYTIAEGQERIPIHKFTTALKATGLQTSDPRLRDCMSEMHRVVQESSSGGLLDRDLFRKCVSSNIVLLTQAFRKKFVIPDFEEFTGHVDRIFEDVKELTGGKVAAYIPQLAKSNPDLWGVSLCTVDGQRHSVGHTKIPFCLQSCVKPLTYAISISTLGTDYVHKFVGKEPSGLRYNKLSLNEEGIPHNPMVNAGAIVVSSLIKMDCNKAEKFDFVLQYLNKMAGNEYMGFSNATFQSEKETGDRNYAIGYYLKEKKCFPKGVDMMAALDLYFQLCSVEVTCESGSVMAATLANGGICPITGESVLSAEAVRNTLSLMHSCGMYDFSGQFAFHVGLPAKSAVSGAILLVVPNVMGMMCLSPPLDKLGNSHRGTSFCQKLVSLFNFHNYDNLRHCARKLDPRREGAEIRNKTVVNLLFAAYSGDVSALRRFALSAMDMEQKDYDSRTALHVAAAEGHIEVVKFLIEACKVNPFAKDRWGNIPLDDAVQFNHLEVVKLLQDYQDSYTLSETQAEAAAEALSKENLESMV
# Protocol: Equivalent construct of GAB […]) was amplified from the cDNA clone MGC: 195512 IMAGE: 100066375 (Invitrogen Inc., USA). The sequences of the primers were: [NT] (BamHI) and [NT] (Notl). The resultant GAB-expression vector, pET28a(+)-GAB, was transformed into Escherichia coli strain […] Biotech Co., Taiwan). The expression protocol was followed as that protocol of KGA construct. The cells after induction were collected and resuspended in lysis buffer (50 mM Tris-HCl pH 8.5, 500 mM NaCl, 10% glycerol, and 10 mM β-ME) for sonication. […] His-tagged GAB was eluted with lysis buffer containing 200 mM imidazole. The eluted GAB was exchanged to 20 mM Tris-HCl (pH 8.0), 300 mM NaCl, 50% glycerol, and 2 mM dithiothreitol by using a PD-10 Desalting column (GE Healthcare). Human glutaminase activity was measured using a two-step assay as described previously. A microtiter assay format was used to facilitate the collection of multiple data points. […] Samples were incubated at 25°C for 10 min and then 10 μl of 200 mM glutamine were added to the reaction mix. After adding glutamine, the reactions were incubated at 37°C for 60 min and then quenched by the addition of 10 μl of 0.6 M HCl. Subsequently, 100 μl of a second reaction mixture (3.7 units of purified bovine liver glutamate dehydrogenase, 160 mM Tris/acetate [pH 9.4], 400 mM hydrazine, 5 mM ADP and 2 mM NAD^+) was added to the stopped first reaction mixture and incubated for 30 min at 25°C. The absorbance at 340 nm was measured using a Wallac Victor2V plate reader (PerkinElmer), fitted with a 340 nm excitation filter. Sample absorbance was measured against a blank, containing no human glutaminase. The kinetic constants Km and Vmax were determined by using Kaleida Graph software (Synergy Software) to calculate a non-linear least-squares fit for all the data points to the Michaelis-Menten equation.
# human KGA = biological target: T2, human KGA (Homo sapiens, UniProt O94925); experiment: Two-step glutaminase activity assay, purified recombinant KGA; type: biochemical; details: recombinant wild-type KGA, absence of phosphate
# T2 construct: a KGA cDNA fragment of 1644 bp (residues Leu123-Leu669); His-tag (N); made in house; host or cells: Escherichia coli BL21(DE3)pLysS
# T2 sequence (O94925 123-669): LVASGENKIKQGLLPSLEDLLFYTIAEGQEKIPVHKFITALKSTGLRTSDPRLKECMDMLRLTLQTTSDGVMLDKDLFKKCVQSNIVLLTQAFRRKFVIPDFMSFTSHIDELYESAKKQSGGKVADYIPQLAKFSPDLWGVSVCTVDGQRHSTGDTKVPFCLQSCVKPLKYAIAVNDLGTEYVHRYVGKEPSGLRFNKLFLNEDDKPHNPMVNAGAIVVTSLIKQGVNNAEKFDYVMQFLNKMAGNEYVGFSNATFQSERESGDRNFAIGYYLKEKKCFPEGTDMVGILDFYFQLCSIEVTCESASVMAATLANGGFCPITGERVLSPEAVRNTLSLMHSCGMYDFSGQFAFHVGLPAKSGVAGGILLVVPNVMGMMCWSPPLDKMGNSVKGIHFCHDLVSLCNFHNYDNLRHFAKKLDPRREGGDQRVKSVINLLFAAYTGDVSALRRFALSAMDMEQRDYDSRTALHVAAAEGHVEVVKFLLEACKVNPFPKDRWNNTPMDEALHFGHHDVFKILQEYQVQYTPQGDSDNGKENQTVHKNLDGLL
# Protocol: The cDNA fragment of KGA digested with BamHI and NotI at each end was ligated into the pET28a(+) vector (Novagen) and expressed as a his-tag fusion. Escherichia coli strain BL21(DE3)pLysS was transformed with the resulting plasmid, pET28a(+)-KGA, and then cultured in Luria-Bertani broth medium in the presence of kanamycin. […] The cells were harvested by centrifugation at 10,000 rpm for 15 min at 4°C and resuspended in lysis buffer (5 mM Tris-HCl [pH 8.0], 50 mM NaH2PO4, 300 mM NaCl and 10 mM imidazole) for sonication. […] The eluted protein was exchanged to 20 mM Tris-HCl (pH 8.0), 300 mM NaCl, 10% glycerol, and 2 mM dithiothreitol by using a PD-10 Desalting column (GE Healthcare). The concentration of the purified protein was determined by use of the Bio-Rad protein assay reagent with a standard curve plotted against bovine serum albumin. […] A microtiter assay format was used to facilitate the collection of multiple data points. […] Samples were incubated at 25°C for 10 min and then 10 μl of 200 mM glutamine were added to the reaction mix. After adding glutamine, the reactions were incubated at 37°C for 60 min and then quenched by the addition of 10 μl of 0.6 M HCl. Subsequently, 100 μl of a second reaction mixture (3.7 units of purified bovine liver glutamate dehydrogenase, 160 mM Tris/acetate [pH 9.4], 400 mM hydrazine, 5 mM ADP and 2 mM NAD^+) was added to the stopped first reaction mixture and incubated for 30 min at 25°C. The absorbance at 340 nm was measured using a Wallac Victor2V plate reader (PerkinElmer), fitted with a 340 nm excitation filter. Sample absorbance was measured against a blank, containing no human glutaminase. The kinetic constants Km and Vmax were determined by using Kaleida Graph software (Synergy Software) to calculate a non-linear least-squares fit for all the data points to the Michaelis-Menten equation.
# [1] = Carcinoma cell growth inhibition (cytotoxicity), A549; details: human, A549 lung carcinoma cells
# Protocol: (§1) The cancer cell lines including HepG2 and A549 were obtained from American Type Culture Collection (Rockville, MD). The cells were cultured in DMEM medium with 10% FBS (v/v) and penicillin (100 units/ml)/ streptomycin (100 mg/ml). Cultures were maintained in a humidified incubator at 37°C in 5% CO2/95% air. Dulbecco's Modified Eagle Medium (DMEM), fetal bovine serum (FBS), penicillin, streptomycin, and all other tissue culture reagents were obtained from GIBCO/BRL Life Technologies (Grand Island, NY).
# (§2) A549 lung carcinoma and HepG2 hepatocarcinoma cells were seeded at 4000 and 10000 cells/well respectively in 96-well plates, as previously described for cell growth inhibition assay [27, 44].
# [2] = Carcinoma cell growth inhibition (cytotoxicity), HepG2; details: human, HepG2 hepatocarcinoma cells
# Protocol: as §1, §2
# HepG2 cells = experiment: Colony (focus) formation assay, HepG2; type: cell-based, human; details: HepG2, 21-day treatment
# Protocol: A549 lung carcinoma and HepG2 hepatocarcinoma cells were seeded at 4000 and 10000 cells/well respectively in 96-well plates, as previously described for cell growth inhibition assay [27, 44]. To assess anchorage-dependent colony formation effect, the cells (1000 cells/well) were seeded in a six-well plate for 20-24 h prior to treatments of vehicle DMSO or compounds as indicated. Culture medium containing vehicle DMSO or compounds as indicated was changed twice a week. After a 21-day treatment, the cell colonies were rinsed with PBS, fixed in 3:1 ratio of methanol and acetic acid, stained with 0.05% crystal violet.
# mTORC1 = experiment: Western blot of mTORC1 components and downstream targets in HepG2 cells; type: cell-based, human; details: co-treatment with AV-1
# Protocol: (§3) The cells were cultured in DMEM medium with 10% FBS (v/v) and penicillin (100 units/ml)/ streptomycin (100 mg/ml). Cultures were maintained in a humidified incubator at 37°C in 5% CO2/95% air. Dulbecco's Modified Eagle Medium (DMEM), fetal bovine serum (FBS), penicillin, streptomycin, and all other tissue culture reagents were obtained from GIBCO/BRL Life Technologies (Grand Island, NY). Antibodies to GAPDH, caspase 3, LC3B, p-ULK1(S317), p-ULK1(S757), Beclin1, p-BCL2(S70), p70S6K, p-p70S6K(T389), 4E-BP1, α-tubulin, 4E-BP, p-4E-BP(S65), p-eIF4B(S422), mTOR, p-mTOR(S2481), p-mTOR(S2448), p-Raptor(S792), Tuberin, p-Tuberin(T1462), p-Tuberin(T1387), p-AMPK(T172) and p-AMPK(S108) were from Cell Signaling Technology; antibody to p-Beclin1(S15) was from Abbiotec; antibodies to KGA and Raptor were from Abcam; antibodies to BCL2 were from Upstate Biotechnology; antibodies to α-tubulin were from Chemicon International; antibodies to ULK1, β-tublin and AMPK were from GeneTex; antibodies to GAB were from abnova and Gene Tex; antibodies to GAC were from ProteinTech Group; antibodies to p-mTOR(S2446) and AMPK were from Millipore; anti-mouse and anti-rabbit IgGs were obtained from PerkinElmer. […] Compound C was obtained from Sigma–Aldrich (St. Louis, MO). Western blotting was performed as described [40].
# AMPK = experiment: Western blot of AMPK_ULK1 axis signaling in HepG2 cells; type: cell-based, human; details: co-treatment with AV-1
# Protocol: as §3
# in vitro [3] = details: human
# Protocol: as §1, §2
# in vitro [4] = details: human; remark: listed apart in the source
# Protocol: as §1, §2
Compound,IC50 (human GAB) [µM],IC50 (human KGA) [µM],CC50 [1] [µM],CC50 [2] [µM],other results
Cc1c(O)cc(CCCCCCC/C=C\CCCCCCCc2cc(O)cc(O)c2)cc1O [AK-9],2.3 ± 0.5,11.9 ± 1.2,–,–,–
Cc1c(O)cc(CCCCCCC/C=C\CCCCCc2cc(O)cc(O)c2)cc1O [AK-10],2.1 ± 0.1,11.7 ± 1.3,–,–,–
CCCCCCCCCCCCCC(CC1=C(O)C(=O)C=C(OC)C1=O)OC(C)=O (centres unmarked) [AV-3],25.1 ± 4.5,–,> 50,> 50,–
CCCCCCCC/C=C\CCCCCCCc1cc(O)cc(O)c1 [AK-1],2.9 ± 0.6,73 ± 3,–,–,–
COc1cc(O)cc(CCCCCCC/C=C\CCCCCCCc2cc(O)cc(O)c2)c1 [AK-11],2.9 ± 0.5,13.4 ± 2.2,–,–,–
O=C(Cc1ccccc1)Nc1nnc(CCSCCc2nnc(NC(=O)Cc3ccccc3)s2)s1 [BPTES],–,–,–,–,IC50 (HepG2 cells): 2.8 ± 0.4 µM
COc1cc(O)cc(CCCCCCC/C=C\CCCCCCCc2cc(O)c(C)c(O)c2)c1 [AK-5],2.3 ± 0.4,70 ± 1.6,–,–,–
CCCCCCCCCCCC(CC1=C(O)C(=O)C=C(OC)C1=O)OC(C)=O (centres unmarked) [AV-4],–,–,> 50,> 50,–
COc1cc(O)cc(CCCCC/C=C\CCCCCCCc2cc(O)c(C)c(O)c2)c1 [AK-6],2.5 ± 0.3,36.7 ± 3.2,–,–,–
CCCCCCCCCCCCCC(Cc1cc(OC(C)=O)cc(OC)c1O)OC(C)=O (centres unmarked) [AV-11],5.7 ± 1.1,69 ± 3.1,5 ± 0.8,5.2 ± 0.3,–
Cc1c(O)cc(CCCCCCC/C=C\CCCCCCCc2cc(O)c(C)c(O)c2)cc1O [AK-7],2.9 ± 0.8,17.5 ± 2.6,> 100,> 100,–
c1cc(-c2cnn3cc(-c4ccc(OCCN5CCCCC5)cc4)cnc23)ccn1 [compound C],–,–,–,–,Effect on AV-1 induced phosphorylation of Raptor at Ser792 and Tuberin at Ser1387 (mTORC1): attenuated; Effect on the AV-1 decreased phosphorylation of ULK1 Ser757 (AMPK): reversed
Cc1c(O)cc(CCCCC/C=C\CCCCCCCc2cc(O)c(C)c(O)c2)cc1O [AK-8],3.1 ± 0.5,13.9 ± 1.5,–,–,–
CCCCCCCCCCCCCC(=O)Cc1cc(O)cc(OC)c1OC(C)=O [AV-14],4.7 ± 1.3,41 ± 5.2,> 50,> 50,–
CCCCCC/C=C\CCCCCCCc1cc(O)c(C)c(O)c1 [AK-4],–,59.8 ± 4.6,–,–,–
"[N-]=[N+]=CC(=O)CC[C@H](N)C(=O)O [DON, reference compound]",–,59.9 ± 8.8,–,–,–
CCCCCCCC/C=C\CCCCCCCc1cc(O)c(C)c(O)c1 [AK-3],2.7,76.9 ± 0.8,–,–,–
CCCCCCCCCCCCCC(O)Cc1cc(O)cc(OC)c1 (centres unmarked) [AV-12],7.6 ± 2,52.4 ± 15.5,> 50,> 50,–
COc1cc(O)cc(CCCCCCC/C=C\CCCCCc2cc(O)cc(O)c2)c1 [AK-12],2.9 ± 0.6,9.6 ± 1.2,> 100,84.6 ± 2.3,–
CCCCCCCc1cc(O)cc(OC)c1 [AV-13],–,52.7 ± 2.7,35.5 ± 2.6,36.9 ± 2,–
CCCCCCCCCCCC(Cc1c(O)c(OC)cc(O)c1C=O)OC(C)=O (centres unmarked) [AV-10],23.1 ± 4.9,–,22.1 ± 1.6,21.2 ± 0.8,–
CCCCCCCCCCCC(Cc1cc(O)cc(OC)c1O)OC(C)=O (centres unmarked) [AV-8],–,–,11.6 ± 0.4,18.8 ± 0.7,–
CCCCCCCCCCCCCC1=C(O)C(=O)C=C(OC)C1=O [AV-7],–,–,–,–,CC50 (in vitro [3]): > 50 µM; CC50 (in vitro [4]): > 50 µM
CCCCCCCCCCCC(Cc1cc(OC(C)=O)cc(OC)c1O)OC(C)=O (centres unmarked) [AV-9],31.7 ± 6.7,–,13 ± 2.1,13.7 ± 2.2,–
